Publication PMC8126888 (RSC Medicinal Chemistry, 2020)
Read-outs that look alike come from different tables or passages of the source.

How the values were obtained:
[1] = system: Leishmania infantum MHOM/MA(BE)/67/ITMAP263 intracellular amastigotes; assay: microbe, parasite or virus in culture; details: Macrophage, in Mus musculus
physchem = details: HPLC, Ascentis Express RP Amide column, pH 7.4, eLogD
in vitro [2] = details: PAMPA
in vitro [3] = details: human, microsomes, human liver microsomes
in vitro [4] = details: Swiss, mouse
[5] = system: primary peritoneal mouse macrophages (PMM); details: PMM IC50 / L. infantum IC50
in vitro [6] = details: human
[7] = system: Trypanosoma cruzi, Tulahuen CL2, beta-galactosidase strain; assay: microbe, parasite or virus in culture
in vitro [8] = details: mouse, microsomes, mouse liver microsomes
[9] = system: Leishmania infantum (MHOM/MA/67/ITMAP-263) intracellular amastigotes in THP-1; assay: microbe, parasite or virus in culture; details: THP-1, read-out: L. infantum MHOM/MA/67/ITMAP263 intracellular amastigotes THP-1 cells IC50 (uM)
in vitro [10] = details: human, HFF-1 cells
[11] = system: primary peritoneal mouse macrophages (PMM); assay: cells; details: Macrophage, read-out: PMM IC50 (uM)
in vitro [12] = details: PAMPA; remark: listed apart in the source
in vitro [13] = details: human, THP-1 cells differentiated with PMA
in vitro [14] = details: human, HepG2 cells
[15] = read-out: L. Inf. pIC50, from L. infantum intracellular amastigote IC50 (converted)
[16] = read-out: L. infantum MHOM/MA(BE)/67/ITMAP263 intracellular amastigotes IC50
[17] = MRC5, read-out: T. cruzi Tulahuen C4 (LacZ) IC50
[18] = read-out: L. infantum MHOM/MA(BE)/67/ITMAP263 intracellular amastigotes IC50 (uM), intracellular amastigotes
[19] = MRC5, read-out: T. cruzi Tulahuen C4 (LacZ) IC50 (uM)

Compound	IC50 [1, 15] [µM]	IC50 [1, 16] [µM]	chromatographic logD (physchem)	Papp (in vitro [2]) [×10⁻⁶ cm/s]	microsomal CLint at 0.5 μM (in vitro [3]; pH 7.4, HLM CLint) [µL/min/mg]	IC50 (in vitro [4]) [µM]	SI (vs PMM) [5]	CC50 at 3 days (in vitro [6]) [µM]	IC50 [7, 17] [µM]	IC50 [1, 18] [µM]	chromatographic logD (physchem; experimental)	microsomal CLint at 0.5 μM (in vitro [3]; pH 7.4, HLM CLint (uL/min/mg)) [µL/min/mg]	IC50 [9] [µM]	CC50 (in vitro [10]) [µM]	microsomal CLint at 0.5 μM (in vitro [8]; pH 7.4, MLM CLint (uL/min/mg)) [µL/min/mg]	IC50 [11] [µM]	IC50 [7, 19] [µM]	Papp (in vitro [12]) [×10⁻⁶ cm/s]	CC50 at 120 h (in vitro [13]) [µM]	CC50 (in vitro [14]) [µM]	further results
CCN(Cc1ccccc1)S(=O)(=O)c1ccc(C)cc1 [DNDI0003297129]	49	49.4	4.1	5.38	1740	> 64	1	> 64	28.8												
COc1ccc(Cl)cc1S(=O)(=O)N(Cc1ccccc1)OC [DNDI0003364476]	24.5	24.7	4.3	5.91	265	> 64	3	> 64	7.86												microsomal CLint at 0.5 μM (in vitro [8]; pH 7.4, MLM CLint): 1890 µL/min/mg
CCC(Cc1ccccc1)Sc1nc(C)cc(C)c1C#N (centres unmarked) [DNDI0003297457]	2.63	2.64	5.4	0.19	2010	40.3	15	> 64	6.9												microsomal CLint at 0.5 μM (in vitro [8]; pH 7.4, MLM CLint): 1900 µL/min/mg
COc1ccc(Cl)cc1S(=O)(=O)N(CCO)Cc1ccccc1 [DNDI0003366068]	37.2	37.5	3.5	20.1	180	> 64	2	> 64	26.8												
COc1cc2c(cc1S(=O)(=O)N(Cc1ccccc1)Cc1ccccc1)S(=O)(=O)NCN2 [DNDI0003425513]	2.51							22.9		2.53	3.6	100	48.3	21.9	249	> 64	9.44	0.38	> 64	> 64	
COc1ccc(S(C)(=O)=O)cc1S(=O)(=O)N(Cc1ccccc1)Cc1cc(C(F)(F)F)nn1C [DNDI0003578374]	13.2							> 64		13.1	3.5	60	> 64	> 64	182	> 64	> 64	7.6	> 64	> 64	
CCCCC1Nc2cc(Cl)c(S(N)(=O)=O)cc2S(=O)(=O)N1Cc1ccccc1 (centres unmarked) [DNDI0003392147]	7.24							> 64		7.3	4	22	23.4	> 64	147	> 64	> 64	1.39	12	> 64	
COc1ccc(C#N)cc1S(=O)(=O)N(Cc1ccc(C(F)(F)F)nc1)Cc1ccc(C(F)(F)F)nc1 [DNDI0003578377]	38							> 64		38.1	3.9	17	> 64	> 64	64	> 64	61.7	3.45	> 64	> 64	
COc1ccc(OC)c(S(=O)(=O)N(Cc2ccccc2)Cc2ccccc2)c1 [DNDI0003292440]	0.372	0.36		0.43	242	> 64		45.2	5.71												microsomal CLint at 0.5 μM (in vitro [8]; pH 7.4, MLM CLint): 1300 µL/min/mg
CCN(Cc1ccc(F)cc1)S(=O)(=O)c1cc(C(=O)N2CCOCC2)ccc1OC [DNDI0003392124]	20.9							> 64		20.7	2.7	142	> 64	> 64	116	> 64	36	15.5	> 64	> 64	
COCCN(Cc1ccccc1)S(=O)(=O)c1ccccc1OC(F)(F)F [DNDI0003392130]	8.32							> 64		8.27	3.8	194	31.2	45.1	222	> 64	17.8	5.26	> 64	> 64	
O=S(=O)(NCc1ccccc1)c1cc2c(cc1Cl)NCN(Cc1ccccc1)S2(=O)=O [DNDI0003392144]	> 64							> 64		> 64	3.7	82	> 64	60.2	261	> 64	35.7	1.61	53.2	> 64	
COc1ccc(C(=O)N2CCOCC2)cc1S(=O)(=O)N(Cc1ccc(C(F)(F)F)nc1)C(C)c1ccc(F)cc1 (centres unmarked) [DNDI0003407905]	2.34							> 64		2.36	3.8	267	9.86	49.4	531	> 64	25	18.1	> 64	> 64	
CCN(Cc1ccccc1)S(=O)(=O)c1cc(OC)ccc1OC [DNDI0003365407]	2.51	2.53		11.9	534	> 64	25	> 64	27.4												microsomal CLint at 0.5 μM (in vitro [8]; pH 7.4, MLM CLint): 3500 µL/min/mg
CCCCC(=O)Nc1cccnc1S(=O)(=O)CCc1ccccc1 [DNDI0003363561]	> 64	> 64	3.9	18.9		> 64	1	> 64	> 64												
